Experimental findings from patent US20210147381A1, “1,2,3,4-SUBSTITUTED QUINOLINE COMPOUNDS AS SIP MODULATORS” (AbbVie Deutschland GmbH & Co. KG, priority 2017, published 2021) are described below.

Like-named read-outs stand apart in the source and are kept apart here.

What all share (type): cell-based
The target in test [1] is T1, human S1P5 receptor (S1PR5) (Homo sapiens, UniProt Q9H228).
T1 construct: host or cells: CHO-K1
Put plainly: Intracellular Ca2+ release (method 1), agonist potency and efficacy, S1P5. As to conditions: for Emax: read-out: hS1P5 EMax. Here is the method: (§1) Agonistic activity and efficacy of compounds was assessed in recombinant cells using method 1 described below.
(§2) Agonist potency and efficacy were assessed by measurement of intracellular Ca^2+ release. Recombinant CHO-K1 cells (Euroscreen, Brussels, Belgium) expressing human S1PR5, S1PR1, S1PR3 or S1PR4 receptors, aequorin, and GTP binding protein Gq/i5 were cultured using a medium containing nutrient mixture F-12 Ham (Sigma-Aldrich) with 10% FBS, and 100 μg/mL gentamicin and equilibrated at 5% CO2.
(§3) 15,000 cells in 20 μL medium were seeded into Biocoat poly-D-Lysine coated 384 well plates (Becton Dickinson #35-6663) and grown to 95% confluency after 24 h.
(§4) Culture medium was replaced by an assay buffer consisting of HBBS with Ca^2+ and Mg^2+ (Invitrogen #14025-050), 20 mmol/L Hepes (Sigma-Aldrich #H-3375), 2.5 mmol/L probenecid (Sigma-Aldrich #P-8761, and 0.1% BSA (Sigma-Aldrich #A-7030) pH 7.4. The Calcium 5 no-wash FLIPR assay kit (Molecular Devices #5000625) was performed as described in the kit instructions. Cells were incubated with Calcium 5 dye for 1 h at 37° C., 5% CO2 in the dark. After 45 min adaptation to RT assessment of agonist stimulation of intracellular Ca^2+ release was performed by addition of test compounds at various concentrations obtained by serial dilution. Phospho-fingolimod was used as positive control and reference agonist (intrinsic activity 100%).
(§5) Agonism of test compounds at the human S1Px receptors were characterized by the EC50 values (potencies) deduced from a nonlinear 4 parametric logistic curve fit to the measured fluorescence data after normalization to the lower and upper plateaus of the fitted reference agonist's (phospho-fingolimod)effect curve and by their efficacy (Emax) values represented by their maximum achievable effects in % of the reference agonist's efficacy, which is defined as an Emax of 100%.

Test [2] addresses T2, human S1P3 receptor (S1PR3) (Homo sapiens, UniProt Q99500).
T2 construct: host or cells: CHO-K1
Nature of the test: Intracellular Ca2+ release (method 1), agonist potency, S1P3. As to conditions: value for reference compounds. Here is the method:
as §1, §2, §3, §4, §5

Test [3] deals with T3, human S1P1 receptor (S1PR1) (Homo sapiens, UniProt P21453).
T3 construct: host or cells: CHO-K1
Nature of the test: Intracellular Ca2+ release (method 1), agonist potency, S1P1. To be noted: CHO-K1 cells expressing human S1PR1; cells given as bound. Here is the method: as §1, §2, §3, §4, §5

The target of test [4] is T4, human S1P4 receptor (S1PR4) (Homo sapiens, UniProt O95977).
T4 construct: host or cells: CHO-K1
T4 sequence (O95977 1-384): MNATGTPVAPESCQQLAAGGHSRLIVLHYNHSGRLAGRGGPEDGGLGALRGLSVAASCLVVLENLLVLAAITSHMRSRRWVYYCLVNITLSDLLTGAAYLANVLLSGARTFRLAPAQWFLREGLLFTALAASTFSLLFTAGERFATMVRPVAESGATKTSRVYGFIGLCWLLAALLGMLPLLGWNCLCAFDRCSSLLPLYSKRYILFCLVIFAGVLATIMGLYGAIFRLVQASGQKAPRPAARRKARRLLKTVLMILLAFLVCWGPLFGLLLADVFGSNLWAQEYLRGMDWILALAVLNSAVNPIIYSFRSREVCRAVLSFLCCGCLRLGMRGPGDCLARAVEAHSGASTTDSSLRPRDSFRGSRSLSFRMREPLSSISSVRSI
Put plainly: Intracellular Ca2+ release (method 1), agonist potency, S1P4. As to conditions: CHO-K1 cells expressing human S1PR4. Here is the method: as §1, §2, §3, §4, §5

Where [5] appears, read: maximum effect in % of reference agonist phospho-fingolimod (100%).
Where [6] appears, read: recombinant CHO-K1 cells expressing human S1PR5, aequorin, Gq/i5, Ca2+ release, read-out: S1P5 EC50 range.

T3 sequence (P21453 whole entry): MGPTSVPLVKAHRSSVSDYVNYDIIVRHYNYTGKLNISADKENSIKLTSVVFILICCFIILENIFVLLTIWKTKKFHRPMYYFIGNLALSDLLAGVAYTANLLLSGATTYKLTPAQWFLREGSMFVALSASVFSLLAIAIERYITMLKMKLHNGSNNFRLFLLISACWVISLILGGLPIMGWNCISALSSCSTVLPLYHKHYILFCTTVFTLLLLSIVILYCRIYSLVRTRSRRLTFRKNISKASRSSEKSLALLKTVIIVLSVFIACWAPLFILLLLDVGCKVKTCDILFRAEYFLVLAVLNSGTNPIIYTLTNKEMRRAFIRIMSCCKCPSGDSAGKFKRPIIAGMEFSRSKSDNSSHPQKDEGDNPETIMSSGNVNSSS
T1 sequence (Q9H228 whole entry): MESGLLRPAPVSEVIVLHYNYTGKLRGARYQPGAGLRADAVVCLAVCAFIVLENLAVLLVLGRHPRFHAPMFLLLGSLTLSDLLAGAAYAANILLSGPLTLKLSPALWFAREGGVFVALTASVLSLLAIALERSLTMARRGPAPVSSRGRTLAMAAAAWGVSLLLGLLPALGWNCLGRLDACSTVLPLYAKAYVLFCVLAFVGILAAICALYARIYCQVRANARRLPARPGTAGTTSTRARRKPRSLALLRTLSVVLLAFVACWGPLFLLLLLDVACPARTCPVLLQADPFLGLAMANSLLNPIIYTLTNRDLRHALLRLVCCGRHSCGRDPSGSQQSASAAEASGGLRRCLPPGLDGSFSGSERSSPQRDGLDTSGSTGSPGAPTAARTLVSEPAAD
T2 sequence (Q99500 whole entry): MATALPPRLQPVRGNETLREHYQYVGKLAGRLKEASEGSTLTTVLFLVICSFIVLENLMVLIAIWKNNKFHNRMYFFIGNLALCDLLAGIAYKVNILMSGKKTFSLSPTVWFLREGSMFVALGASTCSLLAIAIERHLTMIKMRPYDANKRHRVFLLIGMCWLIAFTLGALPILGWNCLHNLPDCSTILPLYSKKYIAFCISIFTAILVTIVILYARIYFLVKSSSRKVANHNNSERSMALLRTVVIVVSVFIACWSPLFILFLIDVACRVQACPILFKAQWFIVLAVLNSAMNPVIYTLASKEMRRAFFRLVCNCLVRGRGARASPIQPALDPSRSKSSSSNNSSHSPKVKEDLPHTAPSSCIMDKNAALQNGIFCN

Turning to `O=C(O)CCN1CCc2cc(C#Cc3cccc(F)c3F)ccc2C1` [Reference compound 1, 3-(6-((2,3-difluorophenyl)ethynyl)-3,4-dihydroisoquinolin-2(1H)-yl)propanoic acid, reference compound], the EC50 in test [1] (text value for reference compounds lacking the spiro-linked group, read-out: S1P5 EC50) is 29 nM; in test [2] it was above 1000 nM. Also, the Emax in test [1] (value for reference compounds, % of phospho-fingolimod efficacy) came to 60%.
As to `CC(C)Oc1ccc(C#Cc2ccc3c(c2)C2(CC2)CN(CCCC(=O)O)C3)nc1` [Compound 52, 4-(6′-((5-isopropoxypyridin-2-yl)ethynyl)-1′H-spiro[cyclopropane-1,4′-isoquinolin]-2′(3′H)-yl)butanoic acid], the Emax in test [1] (setting [5]) is above 100%. In addition, the EC50 in test [1] (setting [6]) is 100 to 1000 nM; in test [3], above 1000 nM; in test [4] (cells given as bound), above 1000 nM.
For `CC(CC(=O)O)CN1Cc2ccc(C#Cc3ccc(OC4CCCC4)cc3)cc2C2(CC2)C1` (stereo not shown) [Compound 64, 4-(6′-((4-(cyclopentyloxy)phenyl)ethynyl)-1′H-spiro[cyclopropane-1,4′-isoquinolin]-2′(3′H)-yl)-3-methylbutanoic acid], in test [1] (setting [5]), the maximal effect (Emax) was above 100%. For the same molecule, the EC50 in test [1] (setting [6]) was 10 to 100 nM; in test [3] it was above 1000 nM; in test [4] (cells given as bound), above 1000 nM.
For `CC(CC(=O)O)CN1Cc2ccc(C#Cc3ccc(OC(F)(F)F)cc3)cc2C2(CC2)C1` (stereo not shown) [Compound 65, 3-methyl-4-(6′-((4-(trifluoromethoxy)phenyl)ethynyl)-1′H-spiro[cyclopropane-1,4′-isoquinolin]-2′(3′H)-yl)butanoic acid], in test [1] (setting [5]), the Emax is above 100%. For the same molecule, the EC50 is 100 to 1000 nM in test [1] (setting [6]), above 1000 nM in test [3] and above 1000 nM in test [4] (cells given as bound).
Take `CCOc1ccc(C#Cc2ccc3c(c2)C2(CC2)CN(C2CC(C(=O)O)C2)C3)cc1F` (stereo not shown) [Compound 72, 3-(6′-((4-ethoxy-3-fluorophenyl)ethynyl)-1′H-spiro[cyclopropane-1,4′-isoquinolin]-2′(3′H)-yl)cyclobutanecarboxylic acid]: the maximal effect (Emax) in test [1] (setting [5]) was in the range of 50 to 100%. Also, the concentration giving a half-maximal response (EC50) was 10 to 100 nM in test [1] (setting [6]), above 1000 nM in test [3] and above 1000 nM in test [4] (cells given as bound).
Consider `CCOc1ccc(C#Cc2ccc3c(c2)C2(CC2)CN(CC(=O)O)C3)cc1` [Compound 5, 2′-(carboxymethyl)-6′-((4-ethoxyphenyl)ethynyl)-2′,3′-dihydro-1′H-spiro[cyclopropane-1,4′-isoquinolin]-2′-ium 2,2,2-trifluoroacetate], for which the Emax in test [1] (setting [5]) was 50 to 100%. Moreover, the half-maximal effective concentration (EC50) is 100 to 1000 nM in test [1] (setting [6]), above 1000 nM in test [3] and above 1000 nM in test [4] (cells given as bound).
With `CC(CC(=O)O)CN1Cc2ccc(C#Cc3cccc(F)c3F)cc2C2(CC2)C1` (stereo not shown) [Compound 66, 4-(6′-((2,3-difluorophenyl)ethynyl)-1′H-spiro[cyclopropane-1,4′-isoquinolin]-2′(3′H)-yl)-3-methylbutanoic acid], the Emax in test [1] (setting [5]) was 50 to 100%. For the same molecule, the figures for the EC50 in test [1] (setting [6]), in test [3] and in test [4] (cells given as bound) were 100 to 1000 nM, above 1000 nM and above 1000 nM, respectively.
Take `O=C(O)CCCN1Cc2ccc(OCc3ccc(Cl)cc3)cc2C2(CC2)C1` [Compound 16, 4-(6′-((4-Chlorobenzyl)oxy)-1′H-spiro[cyclopropane-1,4′-isoquinolin]-2′(3′H)-yl)butanoic acid]: in test [1] (setting [5]), the maximal response (Emax) was below 50%. Further, the figures for the EC50 in test [1] (setting [6]), in test [3] and in test [4] were 100 to 1000 nM, above 1000 nM and 100 to 1000 nM, respectively.
Regarding `CCOc1ccc(C#Cc2ccc3c(c2)C2(CC2)CN(CCCC(=O)O)C3)nc1` [Compound 54, 4-(6′-((5-ethoxypyridin-2-yl)ethynyl)-1′H-spiro[cyclopropane-1,4′-isoquinolin]-2′(3′H)-yl)butanoic acid], the maximal effect (Emax) in test [1] (setting [5]) lay in the range of 50 to 100%. Also, the results for the EC50 in test [1] (setting [6]), in test [3] and in test [4] (cells given as bound) were 1000 to 10000 nM, above 1000 nM and above 1000 nM, respectively.
In the case of `CC(C)c1ccc(C#Cc2ccc3c(c2)C2(CC2)CN(CC(=O)O)C3)cc1` [Compound 6, 2′-(carboxymethyl)-6′-((4-isopropylphenyl)ethynyl)-2′,3′-dihydro-1′H-spiro[cyclopropane-1,4′-isoquinolin]-2′-ium 2,2,2-trifluoroacetate], the Emax in test [1] (setting [5]) was above 100%. Moreover, the concentration for a half-maximal effect (EC50) in test [1] (setting [6]) is 100 to 1000 nM; in test [3], above 1000 nM; in test [4] (cells given as bound), above 1000 nM.
As for `CC(CC(=O)O)CN1Cc2ccc(C#Cc3ccc(OC(F)(F)F)c(F)c3)cc2C2(CC2)C1` (stereo not shown) [Compound 61, 4-(6′-((3-fluoro-4-(trifluoromethoxy)phenyl)ethynyl)-1′H-spiro[cyclopropane-1,4′-isoquinolin]-2′(3′H)-yl)-3-methylbutanoic acid], the maximum response (Emax) in test [1] (setting [5]) is 50 to 100%. Besides, the EC50 was below 10 nM in test [1] (setting [6]), above 1000 nM in test [3] and above 1000 nM in test [4] (cells given as bound).
As to `CCOc1ccc(C#Cc2ccc3c(c2)C2(CC2)CN(C2CC(C(=O)O)C2)C3)nc1` (stereo not shown) [Compound 73, 3-(6′-((5-ethoxypyridin-2-yl)ethynyl)-1′H-spiro[cyclopropane-1,4′-isoquinolin]-2′(3′H)-yl)cyclobutanecarboxylic acid], the Emax in test [1] (setting [5]) was in the range of 50 to 100%. The EC50 is 1000 to 10000 nM in test [1] (setting [6]), above 1000 nM in test [3] and above 1000 nM in test [4] (cells given as bound).
Take `COc1ncc(C#Cc2ccc3c(c2)C2(CC2)CN(CCCC(=O)O)C3)cc1F` [Compound 55, 4-(6′-((5-fluoro-6-methoxypyridin-3-yl)ethynyl)-1′H-spiro[cyclopropane-1,4′-isoquinolin]-2′(3′H)-yl)butanoic acid]: the maximum response (Emax) in test [1] (setting [5]) is below 50%. For the same molecule, the 50% effective concentration (EC50) was 1000 to 10000 nM in test [1] (setting [6]), above 1000 nM in test [3] and above 1000 nM in test [4] (cells given as bound).
With `O=C(O)C1CC(N2Cc3ccc(C#Cc4ccc(OC(F)(F)F)c(F)c4)cc3C3(CC3)C2)C1` (stereo not shown) [Compound 71, 3-(6′-((3-fluoro-4-(trifluoromethoxy)phenyl)ethynyl)-1′H-spiro[cyclopropane-1,4′-isoquinolin]-2′(3′H)-yl)cyclobutanecarboxylic acid], the maximal response (Emax) in test [1] (setting [5]) was in the range of 50 to 100%. Moreover, the figures for the concentration giving a half-maximal response (EC50) in test [1] (setting [6]), in test [3] and in test [4] (cells given as bound) were 10 to 100 nM, above 1000 nM and above 1000 nM, respectively.
As to `O=C(O)CN1Cc2ccc(OCc3c(Cl)cccc3Cl)cc2C2(CC2)C1` [Compound 12, 2-(6′-((2,6-Dichlorobenzyl)oxy)-1′H-spiro[cyclopropane-1,4′-isoquinolin]-2′(3′H)-yl)acetic acid], the maximum response (Emax) in test [1] (setting [5]) lay in the range of 50 to 100%. For the same molecule, the concentration for a half-maximal effect (EC50) in test [1] (setting [6]) is 100 to 1000 nM; in test [3], above 1000 nM; in test [4], 100 to 1000 nM.
For the molecule `CCOc1cc(C)c(C#Cc2ccc3c(c2)C2(CC2)CN(CC(C)CC(=O)O)C3)cn1` (stereo not shown) [Compound 67, 4-(6′-((6-ethoxy-4-methylpyridin-3-yl)ethynyl)-1′H-spiro[cyclopropane-1,4′-isoquinolin]-2′(3′H)-yl)-3-methylbutanoic acid], the maximal response (Emax) in test [1] (setting [5]) fell in the range of 50 to 100%. In addition, the figures for the EC50 in test [1] (setting [6]), in test [3] and in test [4] (cells given as bound) were 10 to 100 nM, above 1000 nM and above 1000 nM, respectively.
`O=C(O)CCCN1Cc2ccc(OCc3ccc(F)cc3)cc2C2(CC2)C1` [Compound 17, 4-(6′-((4-Fluorobenzyl)oxy)-1′H-spiro[cyclopropane-1,4′-isoquinolin]-2′(3′H)-yl)butanoic acid]: the maximum response (Emax) in test [1] (setting [5]) lay in the range of 50 to 100%. Also, the results for the 50% effective concentration (EC50) in test [1] (setting [6]), in test [3] and in test [4] (cells given as bound) were 100 to 1000 nM, above 1000 nM and above 1000 nM, respectively.
